Reference: publication PMC12501029, “Discovery of a CNS active GSK3 degrader using orthogonally reactive linker screening” (Nature Communications, 2025)

Assays:
[1] = system: GSK3β-HiBiT KI HEK293 cells; experiment: Multiplexed degradation and cell viability assay (Gly-Phe-AFC fluorescence); assay type: cell-based, human; conditions: up to 24 h and 1 μM (10 nM, 100 nM, 1 µM; 2, 4, 24 h)
Protocol: For viability tests, GSK3β-HiBiT KI HEK293 cells were seeded onto white-opaque 96-well plates at a density of 2 × 10^4 cells per well. After 16 h, cells were treated with test compounds or DMSO with indicated concentrations for 2, 4 and 24 h. Thirty minutes before the end of treatment, 20 µL of reaction buffer containing Gly-Phe-A FC substrate (1:200 in cell culture media, Chem Cruz, sc506265) added to the each well and cells were returned to cell culture incubator. At the end of the treatment time, HiBiT lytic reagents were prepared according to the manufacturer's instructions (Promega) and 120 µL of reagent dispensed to each well. Fluorescence (viability) and luminescence (degradation) signals were measured by GloMAX discover plate reader (Promega) at the same time. Obtained data analysed using Excel and GraphPad Prism (v10.1.2) as previously described above.

GSK3β = biological target: T1, GSK3β (Homo sapiens, UniProt P49841); experiment: Immunoblot degradation of endogenous GSK3β in HEK293 cells; assay type: cell-based; conditions: 10 nM; for endogenous GSK3β degradation: 2 h, HEK293
T1 construct: PROTAC-mediated degradation of untagged, endogenous GSK3β in HEK293 cells; host or cells: HEK293
Protocol: HEK293, HAP1, HAP1 CRBN KO and SH-SY5Y cells were plated in either 6 cm plates or 6-well plates at varying densities (0.5–0.7 × 10^6 cells per plate or wells), and MEF cells were plated in 10 cm plates (1–1.2 × 10^6 cells per plate) depending on experimental set up in respective culturing condition as described above. Stock solutions of compounds were prepared as 10 mM in DMSO (Sigma–Aldrich). Working dilutions were made up fresh in DMSO and culturing media or differentiation media was refreshed prior to any compound treatments. For mode of action studies, cells were pre-treated with inhibitors for 2 h: 1 µM MG132 (Merck, 474790-5 mg), 1 µM MLN4924 (Merck, 5054770001) or 1 µM GSK3 inhibitor (compound 29), before treating with PROTACs for 2, 4 or 24 h as indicated in figure legends. Cells were washed twice with ice-cold PBS (Gibco), harvested in PBS and pelleted, cells were resuspended in RIPA buffer supplemented with complete EDTA-free protease inhibitor cocktail (Roche,11873580001, 1/10 mL) and phosSTOP (Roche, 04906845001, 1 tablet/10 mL) for 20 min lysis on ice then cleared via centrifugation at 16,000 × g, 4 °C for 20 min. SH-SY5Y cells were lysed in 500 µL ice-cold lysis buffer (25 mM Tris-HCl (pH 7.4), 50 mM NaF, 100 mM NaCl, 1 mM EDTA, 4 mM EGTA, 1% (v/v) Triton-X-100, 0.09% (w/v) sucrose, 10 mM sodium pyrophosphate, 10 mM sodium vanodate, 0.1% (v/v) β-mercaptoethanol, supplemented with complete mini protease inhibitor tablet (Sigma; 1 tablet/ 10 mL buffer)). Lysates were flash frozen, thawed and centrifugated at 16,000 × g, 4 °C for 20 min. Following clearance of lysates, protein concentrations were determined by the BCA assay (Fisher Scientific, 23225) or Bradford assay (Bio-rad). Five to thirty micrograms of protein from lysates were prepared in 4×LDS buffer (Thermo Fisher) and 50 mM dithiothreitol (DTT) denaturated at 95 °C for 5 min. […]

T1 sequence (P49841 whole entry): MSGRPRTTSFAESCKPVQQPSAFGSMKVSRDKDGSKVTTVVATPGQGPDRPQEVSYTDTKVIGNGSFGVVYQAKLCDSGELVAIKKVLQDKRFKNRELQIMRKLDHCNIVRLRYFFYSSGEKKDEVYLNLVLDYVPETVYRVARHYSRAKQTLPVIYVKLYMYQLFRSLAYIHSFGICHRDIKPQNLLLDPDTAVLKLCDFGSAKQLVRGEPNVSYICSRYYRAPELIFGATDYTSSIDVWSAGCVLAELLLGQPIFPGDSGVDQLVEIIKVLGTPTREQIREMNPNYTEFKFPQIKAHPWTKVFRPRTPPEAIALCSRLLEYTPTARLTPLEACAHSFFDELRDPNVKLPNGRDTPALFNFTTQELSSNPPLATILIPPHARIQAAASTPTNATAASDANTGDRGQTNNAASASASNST

Structure (SMILES) | impact on cell viability [1] | impact on GSK3 levels (GSK3β; 30 min, HEK cells) | endogenous GSK3β degradation (GSK3β)
Cn1nc(N2CCC(=O)NC2=O)c2ccc(CN3CCN(Cc4ccc(-c5cn(-c6ccc(-c7cn8nccc(C(=O)Nc9cnccc9N9CCOCC9)c8n7)cc6)nn5)nc4)CC3)cc21 [compound 24] | no impact on cell viability | little impact | almost complete removal
Cn1nc(N2CCC(=O)NC2=O)c2ccc(CN3CCN(CCCc4cn(-c5ccc(-c6cn7nccc(C(=O)Nc8cnccc8N8CCOCC8)c7n6)cc5)nn4)CC3)cc21 [compound 26] | – | – | almost complete
